Patent publication US8986995B2, “Methods of deriving differentiated cells from stem cells” (International Stem Cell Corporation, priority 2008, dated 2015)
“Also recorded” adds a separate entry of the source.

Experiments:
hpSC = test: Proportion of DE derived from hpSC, HDAC inhibitor pretreatment versus simultaneous application with Activin A; format: cell-based, human; conditions: for enhancement in the proportion of DE produced from hpSC: applied at the same time with Activin A
hpSC line 2 p = test: Flow cytometry for CXCR4-positive definitive endoderm cells after differentiation, line 2 p; format: cell-based, human; conditions: TSA pretreatment
Description: (§1) Cell culture. Undifferentiated hpSC and hESC were maintained on mouse embryo fibroblast feeder layers in KnockOut DMEM/F12 (Invitrogen) supplemented with 15% KnockOut serum replacement (Invitrogen), 0.05 mM nonessential amino acids (NEAA) (Invitrogen), 2 mM Glutamax-I (Invitrogen), penicillin/streptomycin (Invitrogen), 55 μM 2-mercapthoethonol (Invitrogen), 5 ng/ml recombinant human FGF-basic (PeproTech) and 20 ng/ml recombinant human activin A (R&D Systems); for TSA-pretreatment culture medium was supplemented with 100 nM TSA (Sigma) for 24 hours. Cultures were manually passaged at 1:4-1:6 split ratio every 5-7 days. Differentiation was carried out in RPMI 1640 (Invitrogen) supplemented with Glutamax-I, penicillin/streptomycin, 0.5 mg/ml human serum albumin (Sigma), 100 ng/ml recombinant human Activin A, 75 ng/ml recombinant mouse Wnt3a (R&D Systems) for the first 24 hours only. For subsequent days of differentiation media was RPMI 1640 supplemented with 0.2% human AB serum (Fisher BioReagents) and 100 ng/ml recombinant human Activin A. Before initiating differentiation, stem cells were given a brief wash in DPBS (HyClone). […]
(§2) Flow cytometry. […] Flow cytometry data were acquired on a Beckton Dickinson FACS Caliber and analyzed using FACSDiva software (BD Bioscience).

hpSC line 6 p = test: Flow cytometry for CXCR4-positive definitive endoderm cells after differentiation, line 6 p; format: cell-based, human; conditions: TSA pretreatment
Description: as §1, §2

hpSC line 8 p = test: Flow cytometry for CXCR4-positive definitive endoderm cells after differentiation, line 8 p; format: cell-based, human; conditions: TSA pretreatment
Description: as §1, §2

hpSC line 15 ph = test: Flow cytometry for CXCR4-positive definitive endoderm cells after differentiation, line 15 ph; format: cell-based, human; conditions: TSA pretreatment
Description: as §1, §2

[1] = tested on: human parthenogenetic stem cells (hpSC); test: Flow cytometry for CXCR4-positive cells, hpSC differentiation to definitive endoderm; format: cell-based; conditions: all 4 hpSC lines, CXCR4-positive cells by flow cytometry
Description: as §1
Flow cytometry. […] Flow cytometry data were acquired on a Beckton Dickinson FACS Caliber and analyzed using FACSDiva software (BD Bioscience). […]

[2] = tested on: human parthenogenetic stem cells (hpSC); test: SOX17 immunostaining of differentiated hpSC; format: cell-based
Description: (§3) Cell culture. Undifferentiated hpSC and hESC were maintained on mouse embryo fibroblast feeder layers in KnockOut DMEM/F12 (Invitrogen) supplemented with 15% KnockOut serum replacement (Invitrogen), 0.05 mM nonessential amino acids (NEAA) (Invitrogen), 2 mM Glutamax-I (Invitrogen), penicillin/streptomycin (Invitrogen), 55 μM 2-mercapthoethonol (Invitrogen), 5 ng/ml recombinant human FGF-basic (PeproTech) and 20 ng/ml recombinant human activin A (R&D Systems); for TSA-pretreatment culture medium was supplemented with 100 nM TSA (Sigma) for 24 hours. Cultures were manually passaged at 1:4-1:6 split ratio every 5-7 days. Differentiation was carried out in RPMI 1640 (Invitrogen) supplemented with Glutamax-I, penicillin/streptomycin, 0.5 mg/ml human serum albumin (Sigma), 100 ng/ml recombinant human Activin A, 75 ng/ml recombinant mouse Wnt3a (R&D Systems) for the first 24 hours only. For subsequent days of differentiation media was RPMI 1640 supplemented with 0.2% human AB serum (Fisher BioReagents) and 100 ng/ml recombinant human Activin A. Before initiating differentiation, stem cells were given a brief wash in DPBS (HyClone). […] The protocol is divided into two stages: TSA-pretreatment stage (orange color) and DE differentiation stage (green color). […]

[3] = tested on: human parthenogenetic stem cells (hpSC); test: Real-time quantitative PCR of marker gene expression in hpSC; format: cell-based
Description: Cell culture. Undifferentiated hpSC and hESC were maintained on mouse embryo fibroblast feeder layers in KnockOut DMEM/F12 (Invitrogen) supplemented with 15% KnockOut serum replacement (Invitrogen), 0.05 mM nonessential amino acids (NEAA) (Invitrogen), 2 mM Glutamax-I (Invitrogen), penicillin/streptomycin (Invitrogen), 55 μM 2-mercapthoethonol (Invitrogen), 5 ng/ml recombinant human FGF-basic (PeproTech) and 20 ng/ml recombinant human activin A (R&D Systems); for TSA-pretreatment culture medium was supplemented with 100 nM TSA (Sigma) for 24 hours. Cultures were manually passaged at 1:4-1:6 split ratio every 5-7 days. Differentiation was carried out in RPMI 1640 (Invitrogen) supplemented with Glutamax-I, penicillin/streptomycin, 0.5 mg/ml human serum albumin (Sigma), 100 ng/ml recombinant human Activin A, 75 ng/ml recombinant mouse Wnt3a (R&D Systems) for the first 24 hours only. For subsequent days of differentiation media was RPMI 1640 supplemented with 0.2% human AB serum (Fisher BioReagents) and 100 ng/ml recombinant human Activin A. Before initiating differentiation, stem cells were given a brief wash in DPBS (HyClone). […] The protocol is divided into two stages: TSA-pretreatment stage (orange color) and DE differentiation stage (green color). TSA-pretreatment is performed against background of the culture conditions that support pluripotency state of the hpSC at time interval from “−24” hours till “0” hours. Differentiation starts from time point “0” hours by applying Activin A- and Wnt3a-signaling and withholding TSA from culture medium. Several markers characteristics of each cell population are listed.
Real-time quantitative PCR. Sample collection, reverse transcription and real-time PCR reactions were as previously described (D'Amour et al, Nat. Biotechnol 23:1534-41, 2005).

undifferentiated hpSC = test: Cell death and morphology of undifferentiated hpSC under pretreatment; format: cell-based, human; conditions: TSA pretreatment of undifferentiated hpSC
Description: as §3

[4] = tested on: LLC-6p parthenogenetic stem cell line; test: Immunostaining of definitive endoderm markers, Example 1 protocol; format: cell-based, human; conditions: 100 μM TSA pretreatment, then D1, D2, D3 media
Description: These endoderm-like cells were derived according a protocol of various culture media (D1-Activin A+Wnt3a; D2-Activin A; D3—Activin A; see Tables 1-4, below). However, prior to culture, the parthenogenetic cells were exposed to a pretreatment agent (trichostatin A (TSA)).
Accordingly, a protocol for generating definitive endoderm cells is as follows: (i) addition of 100 μM trichostatin A (TSA) to culture medium (phSC culture medium+TSA) and culture cells for about 24 hours; (ii) cultivation of the cells in phSC culture medium+TSA for about 24 hours; (iii) remove TSA from the culture (i.e., cultivation of the cells in culture medium D1 for about 24 hours); (iv) cultivation of the cells in culture medium D2 for about 24 hours; and (v) cultivation of the cells in culture medium D3 for about 24 hours.

[5] = tested on: mouse embryonic stem cells; conditions: cited from earlier work

Structure (SMILES) | enhancement in the proportion of DE produced from hpSC (hpSC) | proportion of DE derived from hpSC (hpSC; pretreatment of hpSC before Activin A) | CXCR-4 (CD184) + [% "Intact" Cells] (hpSC line 2 p; 3 day of differentiation) [%] | CXCR-4 (CD184) + [% "Intact" Cells] (hpSC line 2 p; 4 day of differentiation) [%] | CXCR-4 (CD184) + [% "Intact" Cells] (hpSC line 6 p; 3 day of differentiation) [%] | CXCR-4 (CD184) + [% "Intact" Cells] (hpSC line 6 p; 4 day of differentiation) [%] | CXCR-4 (CD184) + [% "Intact" Cells] (hpSC line 8 p; 3 day of differentiation) [%] | CXCR-4 (CD184) + [% "Intact" Cells] (hpSC line 8 p; 4 day of differentiation) [%] | CXCR-4 (CD184) + [% "Intact" Cells] (hpSC line 15 ph; 3 day of differentiation) [%] | CXCR-4 (CD184) + [% "Intact" Cells] (hpSC line 15 ph; 4 day of differentiation) [%] | increase in number of definitive endoderm cells over non-pretreated cultures [1] | relative proportion of SOX17 immunoreactive cells ([2]; after differentiation during 72 hours, TSA-treated versus non treated hpSC cultures) | proportion of SOX17-positive cells ([2]; hpSC pretreated with TSA 24 hours, after 72 hours of differentiation) | brachyury gene expression during differentiation ([3]; TSA-pretreated versus non TSA pretreated cultures, 24 h and 48 h of differentiation) | brachyury expression after pretreatment ([3]; after 24 hours TSA pretreatment, before start of differentiation (0h)) | expression of pluripotency genes OCT4 and SOX2 and DE genes CER1, SOX17, CXCR4 ([3]; after TSA pretreatment, before start of differentiation (0h)) | cell death and cell morphology (undifferentiated hpSC) | FoxA2 expression by immunostaining [4] | Sox17 expression by immunostaining [4] | effect on pluripotency factors including Nanog [5]
CCCC(=O)[O-].[Na+] [NaB, sodium butyrate] | did not produce any enhancement | increased the proportion of DE | – | – | – | – | – | – | – | – | – | – | – | – | – | – | – | – | – | –
CC(/C=C/C(=O)NO)=C\[C@@H](C)C(=O)c1ccc(N(C)C)cc1 [TSA, trichostatin A] | did not produce any enhancement | – | 61.0 | 58.9 | 61.2 | 67.6 | 67.1 | 76.7 | 24.1 | 34.2 | 1.4-1.8 fold | most numerous | greater than 70% | higher peak level of brachyury gene expression at 24 h and sharper kinetic of reduced expression at 48 h; also recorded: significantly higher levels of brachyury transcripts | slight upregulation of brachyury expression | no significant changes | some cell death as well as changes in cell morphology | overwhelming majority of cells expressed FoxA2 | majority of cells expressed Sox17 | suppression of important pluripotency factors
